Patent US12053473B2, “Benzylamino substituted quinazolines and derivatives as SOS1 inhibitors” (priority 2016, dated 2024)
pIC50: −log10 of the molar value. Read-outs that look alike come from different tables or passages of the source.

Target: SOS1 and KRAS G12D (protein-protein interaction) (Homo sapiens, UniProt Q07889)
Assay: KRAS::SOS1 AlphaScreen binding assay
Experimental: KRAS::SOS1 AlphaScreen Binding Assay
Low IC50 values are indicative of high potency of the SOS1 inhibitor compound in this assay setting:
10 nM (final assay concentration) KRAS G12D, 10 μM (final assay concentration) GDP and 5 nM (final assay concentration) GST-SOS1 are mixed in assay buffer prior to use and kept at room temperature.
AlphaLSA Glutathione Acceptor Beads and AlphaScreen Streptavidin Donor Beads are mixed in assay buffer at a concentration of 10 μg/mL (final assay concentration) each prior to use and kept at room temperature.
Compounds are diluted to a final start concentration of 100 μM and are tested in duplicate. […] For compound a start concentration of 100 μM, 150 nL of compound solution is transferred per well in 11 concentrations in duplicate with serial 1:5 dilutions.
The assay is run using a fully automated robotic system in a darkened room below 100 Lux. 10 μL of KRAS::SOS1 GDP mix is added into columns 1-24 to the 150 nL of compound solution (final dilution in the assay 1:100, final DMSO concentration 1%).
After a 30 minute incubation time 5 μL of bead mix is added into columns 1-23. Plates are kept at room temperature in a darkened incubator. After a further 60 minute incubation, the signal is measured using a PerkinElmer Envision HTS Multilabel Reader using the AlphaScreen specifications from PerkinElmer. Each plate contains the following controls: • diluted DMSO+KRAS::SOS1 GDP mix+bead mix • diluted DMSO+KRAS::SOS1 GDP mix Result Calculation:
IC50 values are calculated and analyzed using a 4 parametric logistic model.

[1] = values marked with * in the table, read-out: IC50 (SOS1)
[2] = assay buffer without EDTA (values not marked with an asterisk), read-out: IC50 (SOS1)
[3] = assay buffer with 100 μM EDTA (values marked with an asterisk), read-out: IC50 (SOS1)

Compound	pIC50 (read-out: IC50 (SOS1))	other results
Cc1nc(N[C@H](C)c2cccc(C(F)(F)F)c2)c2cc([C@]3(O)CC[C@H](O)CC3)ccc2n1 [I-59]	–	pIC50: 7.70
Cc1nc(N[C@H](C)c2cccc(C(F)(F)F)c2)c2cc([C@]3(O)CC[C@H](O)CC3)cc(C)c2n1 [I-55]	–	pIC50: 7.70
Cc1nc(N[C@H](C)c2cccc(C(F)(F)F)c2)c2cc(-c3ccc(=O)[nH]c3)ccc2n1 [I-100]	–	pIC50 [1]: 7.32
COc1cc2nc(C)nc(N[C@H](C)c3cccc(C(F)(F)F)c3)c2cc1-c1ccc(C(=O)N(C)C)cn1 [I-191]	–	pIC50 [2]: 7.46
Cc1nc(N[C@H](C)c2cc(N)cc(C(F)(F)F)c2)c2cc(C3CCS(=O)(=O)CC3)c(C)cc2n1 [I-321]	8.52	–
Cc1cccc([C@@H](C)Nc2nc(C)nc3ccc(C4CC[S+]([O-])CC4)cc23)c1 (some centres unmarked) [I-160]	–	pIC50 [3]: 7.66
COc1cc2nc(C)nc(N[C@H](C)c3cccc(C(F)(F)CO)c3)c2cc1C1=CCC(C(=O)N(C)C)CC1 (some centres unmarked) [I-285]	8.70	–
Cc1nc(N[C@H](C)c2cc(N)cc(C(F)(F)F)c2)c2cc(-c3cc4n(n3)CCC(=O)N4)ccc2n1 [I-90]	8.15	–
Cc1nc(N[C@H](C)c2cc(N)cc(C(F)(F)F)c2)c2cc(C3CCS(=O)(=O)CC3)c(F)cc2n1 [I-320]	8.40	–
COCC(=O)N1CC=C(c2ccc3nc(C)nc(N[C@H](C)c4cc(N)cc(C(F)(F)F)c4)c3c2)CC1 [I-220]	8.52	–
COc1cc2nc(C)nc(N[C@H](C)c3cccc(S(C)(=O)=O)c3)c2cc1O[C@H]1CCOC1 [I-3]	–	pIC50 [3]: 7.33
COc1cc2nc(C)nc(N[C@H](C)c3cccc(C)c3)c2cc1C1CCN(C(C)=O)CC1 [I-281]	7.92	–
Cc1cccc([C@@H](C)Nc2nc(C)nc3cc(C)c(C4CCN(CC(=O)O)CC4)cc23)c1 [I-291]	–	pIC50 [2]: 8.00
CCn1ccc(-c2cc3c(N[C@H](C)c4cc(N)cc(C(F)(F)F)c4)nc(C)nc3cc2C)cc1=O [I-349]	8.30	–
Cc1nc(N[C@H](C)c2cc(N)cc(C(F)(F)F)c2)c2cc([C@H]3CC[C@H](C(=O)N(C)[C@@H]4CCOC4)CC3)ccc2n1 [I-242]	8.30	–
Cc1nc(N[C@H](C)c2cccc(Cl)c2F)c2cc(C3=CCNCC3)ccc2n1 [I-170]	–	pIC50 [3]: 7.62
Cc1nc(N[C@H](C)c2cc(N)cc(C(F)(F)F)c2)c2cc([C@H]3CC[C@H](C(=O)N4CCOCC4)CC3)ccc2n1 [I-234]	8.70	–
COc1cc2nc(C)nc(N[C@H](C)c3cccc(C(F)(F)CO)c3)c2cc1C1=CCN(C(C)=O)CC1 [I-287]	8.70	–
COc1cc2nc(C)nc(N[C@H](C)c3cc(N)cc(C(F)(F)F)c3C)c2cc1[C@H]1CC[C@H](C(=O)N(C)C)CC1 [I-248]	8.70	–
Cc1nc(N[C@H](C)c2cccc(C(F)(F)F)c2)c2cc(C(C)CC(=O)NCC(F)(F)F)c(C)cc2n1 (some centres unmarked) [I-380]	7.38	–
Cc1cccc([C@@H](C)Nc2nc(C)nc3cc(C)c(C4CCNCC4)cc23)c1 [I-176]	–	pIC50 [2]: 7.34
COc1cc2nc(C)nc(N[C@H](C)c3cccc(C(F)(F)F)c3)c2cc1-c1ccc(C(=O)N(C)C)nc1 [I-189]	–	pIC50 [2]: 7.64

Compound	pIC50 (read-out: IC50 (SOS1))	other results
COc1cc2nc(C)nc(N[C@H](C)c3cc(N)cc(C(F)(F)F)c3)c2cc1[C@H]1CC[C@H](C(=O)N2CCN(C)CC2)CC1 [I-353]	8.70	–
COCC(=O)N1CCC(c2cc3c(N[C@H](C)c4cccc(C)c4)nc(C)nc3cc2OC)CC1 [I-282]	7.70	–
Cc1nc(N[C@H](C)c2cc(N)cc(C(F)(F)F)c2)c2cc([C@H]3CC[C@H](C(=O)N(C)[C@H]4CCOC4)CC3)ccc2n1 [I-250]	8.40	–
Cc1nc(N[C@H](C)c2cccc(C(F)(F)F)c2)c2cc([C@H]3CC[C@@H](C(=O)N(C)C4COC4)CC3)ccc2n1 [I-233]	7.42	–
COc1cc2nc(C)nc(N[C@H](C)c3cccc(C(F)(F)F)c3)c2cc1-c1ccc(C(=O)N(C)C)c(C)c1 [I-216]	7.32	–
CC(=O)N1CC[C@H](Oc2cc3c(N[C@H](C)c4cc(N)cc(C(F)(F)F)c4)nc(C)nc3cc2F)C1 [I-8]	–	pIC50 [2]: 8.22
Cc1cccc([C@@H](C)Nc2nc(C)nc3ccc(-c4ccn(CC(=O)O)c(=O)c4)cc23)c1 [I-342]	–	pIC50 [1]: 7.32
Cc1cccc([C@@H](C)Nc2nc(C)nc3ccc(C4CCS(=O)(=O)CC4)cc23)c1 [I-161]	–	pIC50 [3]: 7.54
Cc1cccc([C@@H](C)Nc2nc(C)nc3ccc(-c4ccc(=O)[nH]c4)cc23)c1 [I-99]	–	pIC50 [1]: 7.54
COc1cc2nc(C)nc(N[C@H](C)c3cccc(C(F)(F)F)c3)c2cc1C(C)CC(=O)NC1CC1 (some centres unmarked) [I-383]	7.68	–
Cc1cccc([C@@H](C)Nc2nc(C)nc3ccc(C4CCOCC4)cc23)c1 [I-154]	–	pIC50 [2]: 7.37
COc1cc2nc(C)nc(N[C@H](C)c3cccc(C(F)(F)F)c3)c2cc1C1(O)CCN(C(C)=O)CC1 [I-44]	–	pIC50 [2]: 8.40
CNC(=O)CC(C)c1cc2c(N[C@H](C)c3cccc(C(F)(F)F)c3)nc(C)nc2cc1OC (some centres unmarked) [I-381]	7.77	–
COCC(=O)N1CCC(c2cc3c(N[C@H](C)c4cccc(C)c4)nc(C)nc3cc2C)CC1 [I-272]	7.47	–
COCC(=O)N1CCC(c2ccc3nc(C)nc(N[C@H](C)c4cc(N)cc(C(F)(F)F)c4)c3c2)CC1 [I-314]	8.70	–
CNC(=O)CC(C)c1ccc2nc(C)nc(N[C@H](C)c3cccc(C(F)(F)F)c3)c2c1 (some centres unmarked) [I-375]	7.44	–
Cc1nc(N[C@H](C)c2cccc(C(F)(F)F)c2)c2cc(-c3ccc(=O)n(CC(=O)N(C)C)c3)ccc2n1 [I-333]	–	pIC50 [1]: 7.59
Cc1nc(N[C@H](C)c2cc(N)cc(C(F)(F)F)c2)c2cc(-c3cnn(CC(=O)N(C)C)c3)ccc2n1 [I-86]	8.10	–
Cc1nc(N[C@H](C)c2cc(N)cc(C(F)(F)F)c2)c2cc([C@H]3CC[C@H](C(=O)N(C)C)CC3)cc(C)c2n1 [I-363]	8.40	–
COc1cc2nc(C)nc(N[C@H](C)c3cccc(C(F)(F)F)c3C)c2cc1[C@H]1CC[C@H](C(=O)N(C)CCO)CC1 [I-294]	8.30	–
Cc1nc(N[C@H](C)c2cc(N)cc(C(F)(F)F)c2)c2cc([C@H]3CC[C@H](C(=O)N(C)C[C@H](C)O)CC3)ccc2n1 [I-254]	8.70	–
COc1cc2nc(C)nc(N[C@H](C)c3cccc(C(F)(F)CO)c3)c2cc1O[C@H]1CCOC1 [I-1]	–	pIC50 [2]: 8.52

Compound	pIC50 (read-out: IC50 (SOS1))	other results
COc1cc2nc(C)nc(N[C@H](C)c3cc(N)cc(C(F)(F)F)c3)c2cc1-c1cnn(CC(=O)N(C)C)c1 [I-84]	8.22	–
CCC(=O)N1CC[C@H](Oc2cc3c(N[C@H](C)c4cc(N)cc(C(F)(F)F)c4)nc(C)nc3cc2C)C1 [I-53]	–	pIC50 [2]: 8.52
Cc1nc(N[C@H](C)c2cccc(C(F)(F)F)c2)c2cc(-c3ccn(CC(=O)N(C)C)c(=O)c3)ccc2n1 [I-337]	–	pIC50 [1]: 7.43
Cc1cccc([C@@H](C)Nc2nc(C)nc3ccc([C@H]4CC[C@H](C(=O)N(C)C)CC4)cc23)c1 [I-264]	7.89	–
Cc1nc(N[C@H](C)c2cc(N)cc(C(F)(F)F)c2)c2cc([C@H]3CC[C@H](C(=O)N(C)CC(C)(C)O)CC3)ccc2n1 [I-258]	8.52	–
CC(=O)N1CCC(O)(c2ccc3nc(C)nc(N[C@H](C)c4cccc(C)c4)c3c2)CC1 [I-52]	–	pIC50 [2]: 7.85
Cc1cccc([C@@H](C)Nc2nc(C)nc3c(C)cc(C4CCN(C5CCOC5)CC4)cc23)c1 (some centres unmarked) [I-290]	–	pIC50 [2]: 7.55
CONC(=O)CC(C)c1cc2c(N[C@H](C)c3cccc(C(F)(F)F)c3)nc(C)nc2cc1OC (some centres unmarked) [I-382]	7.80	–
COCC(=O)N1CCC(c2cc(C)c3nc(C)nc(N[C@H](C)c4cccc(C)c4)c3c2)CC1 [I-270]	7.68	–
CCn1cc(-c2cc3c(N[C@H](C)c4cc(N)cc(C(F)(F)F)c4)nc(C)nc3cc2OC)ccc1=O [I-350]	8.05	–
Cc1cccc([C@@H](C)Nc2nc(C)nc3c(C)cc(C4CCN(C(C)C)CC4)cc23)c1 [I-289]	–	pIC50 [2]: 7.74
COc1cc2nc(C)nc(N[C@H](C)c3cccc(C)c3)c2cc1-c1ccc(C(=O)N(C)C)nc1 [I-190]	–	pIC50 [2]: 7.47
COCC(=O)N1CCC(c2cc3c(N[C@H](C)c4cc(N)cc(C(F)(F)F)c4F)nc(C)nc3cc2OC)CC1 [I-307]	8.52	–
COc1cc2nc(C)nc(N[C@H](C)c3cc(N)cc(C(F)(F)F)c3)c2cc1[C@H]1CC[C@H](C(=O)N2CCOCC2)CC1 [I-359]	8.70	–
Cc1nc(N[C@H](C)c2cc(N)cc(C(F)(F)F)c2C)c2cc(C3CCS(=O)(=O)CC3)ccc2n1 [I-317]	8.40	–
Cc1nc(N[C@H](C)c2cccc(C(F)(F)F)c2)c2cc(C3=CCC(C(=O)N4CCN(C)CC4)CC3)ccc2n1 (some centres unmarked) [I-223]	7.57	–
Cc1nc(N[C@H](C)c2cc(N)cc(C(F)(F)F)c2)c2cc(C3=CCS(=O)(=O)CC3)cc(C)c2n1 [I-364]	7.96	–
COc1cc2nc(C)nc(N[C@H](C)c3cc(N)cc(C(F)(F)F)c3F)c2cc1[C@H]1CC[C@@H](C(=O)N(C)C)CC1 [I-245]	7.46	–
Cc1nc(N[C@H](C)c2cccc(C(F)(F)F)c2)c2cc(C3(O)CCS(=O)(=O)CC3)ccc2n1 [I-21]	–	pIC50 [2]: 7.70
COCCN(C)C(=O)[C@H]1CC[C@H](c2cc3c(N[C@H](C)c4cc(N)cc(C(F)(F)F)c4)nc(C)nc3cc2OC)CC1 [I-357]	8.52	–
Cc1nc(N[C@H](C)c2cc(N)cc(C(F)(F)F)c2)c2cc(O[C@H]3CCN(C(=O)C4CC4)C3)c(C)cc2n1 [I-54]	–	pIC50 [2]: 8.40
